Results reported in US20250387409A1, “3-BETA-HYDROXY-3-ALPHA-ETHYL STEROIDS FOR MODULATION OF THE ALPHA-3 SUBTYPE OF THE GABAA RECEPTOR” (priority 2021, published 2025).

How the values were obtained:
GABAA-receptors = assay: Patch clamp, steroid alone without GABA present; assay type: cell-based, human
Excerpt: (§1) In these tests the protocol was optimized to be like the physiological conditions in the synaptic cleft.
Preparation of cell lines: HEK-293 cells permanently transfected with the human α1-β2-γ2L, α2-β3-γ2S, α3-ββ3-γ2L, α4-β3-δ or α5-β3-γ2L GABAA-receptor subtypes were used. The cell lines permanently expressing a functional human GABAA-receptor was made in following steps. The human GABAA-receptor subunits e.g. α1 (308-1727 NM_000806), β2 (214-1679 NM_000813), γ2L (290-1785 NM_198904), α2, β3, γ2S, α3, α4, δ and α5 including introduced Kozac sequences just before the start codons were subcloned into mammalian expression vectors containing Geneticin, Hygromycin B, and Zeocin resistance, respectively. A HEK-293 cell line stably expressing the three GABAA-receptor subunits was produced by transfection of the subunits, one at a time. The transfection was followed by selection with the appropriate antibiotics, cell separation with the use of subunit specific antibodies and production of single cell colonies. Produced cell lines were analysed with immunocytochemistry for the three GABAA-receptor subunits, followed by selection of a suitable cell line showing, for the GABAA-receptor normal and good reactivity in a patch-clamp analysis (see below) towards GABA and the GAMS THDOC. […]

[1] = target: T1, human GABAA-receptor subtype α3β3γ2L (Homo sapiens, UniProt P28472+P34903); assay: Patch clamp (Dynaflow) THDOC enhancement of GABA response, HEK-293 cells, α3β3γ2L; assay type: cell-based; conditions: for reduction of THDOC-enhanced GABA effect, Mean ± SEM %: 100 nM THDOC, 100 μM GABA, GABA response subtracted
T1 construct: expressed in transfected cells
T1 sequence (P34903 29-492): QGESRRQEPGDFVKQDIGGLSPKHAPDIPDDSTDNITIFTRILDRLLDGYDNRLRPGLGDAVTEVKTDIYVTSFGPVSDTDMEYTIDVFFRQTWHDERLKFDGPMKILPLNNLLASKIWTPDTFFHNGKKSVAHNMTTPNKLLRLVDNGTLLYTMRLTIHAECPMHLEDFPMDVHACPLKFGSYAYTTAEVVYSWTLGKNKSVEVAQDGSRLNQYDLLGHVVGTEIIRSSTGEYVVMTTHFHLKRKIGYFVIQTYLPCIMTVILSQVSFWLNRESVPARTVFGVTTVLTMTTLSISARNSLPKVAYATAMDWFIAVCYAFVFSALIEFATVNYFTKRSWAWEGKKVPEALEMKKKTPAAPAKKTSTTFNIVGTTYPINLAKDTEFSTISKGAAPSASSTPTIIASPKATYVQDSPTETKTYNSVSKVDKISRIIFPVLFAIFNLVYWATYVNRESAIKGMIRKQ
T1 sequence (P28472 26-473): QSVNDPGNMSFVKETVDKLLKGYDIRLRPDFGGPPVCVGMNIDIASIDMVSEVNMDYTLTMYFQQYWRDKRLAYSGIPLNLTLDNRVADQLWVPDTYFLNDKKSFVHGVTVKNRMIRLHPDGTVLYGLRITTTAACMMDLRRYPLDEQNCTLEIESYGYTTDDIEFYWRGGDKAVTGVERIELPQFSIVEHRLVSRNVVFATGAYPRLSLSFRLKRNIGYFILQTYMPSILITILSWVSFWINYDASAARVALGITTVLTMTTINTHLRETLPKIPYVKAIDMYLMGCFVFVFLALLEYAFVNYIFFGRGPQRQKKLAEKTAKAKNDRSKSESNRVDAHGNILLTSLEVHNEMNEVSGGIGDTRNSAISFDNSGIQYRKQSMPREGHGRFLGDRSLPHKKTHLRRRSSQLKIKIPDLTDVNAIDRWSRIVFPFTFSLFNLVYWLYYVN
T1 sequence (P18507 40-475 partner): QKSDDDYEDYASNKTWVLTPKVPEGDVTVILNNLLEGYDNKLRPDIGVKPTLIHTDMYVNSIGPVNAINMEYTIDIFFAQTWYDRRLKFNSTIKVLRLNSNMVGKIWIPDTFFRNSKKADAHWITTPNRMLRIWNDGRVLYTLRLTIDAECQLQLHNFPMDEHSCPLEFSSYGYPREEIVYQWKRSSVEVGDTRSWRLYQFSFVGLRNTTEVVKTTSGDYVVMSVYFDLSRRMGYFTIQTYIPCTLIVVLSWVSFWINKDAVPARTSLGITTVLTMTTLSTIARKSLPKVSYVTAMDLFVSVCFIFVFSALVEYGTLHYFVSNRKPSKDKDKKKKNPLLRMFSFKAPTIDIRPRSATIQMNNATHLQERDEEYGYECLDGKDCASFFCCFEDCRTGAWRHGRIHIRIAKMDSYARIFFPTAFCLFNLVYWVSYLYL
Excerpt: as §1
(§2) Preparation of cell lines: HEK-293 cells permanently transfected with the human α1-β2-γ2L, α2-β3-γ2S, α3-ββ3-γ2L, α4-β3-δ or α5-β3-γ2L GABAA-receptor subtypes were used. The cell lines permanently expressing a functional human GABAA-receptor was made in following steps. The human GABAA-receptor subunits e.g. α1 (308-1727 NM_000806), β2 (214-1679 NM_000813), γ2L (290-1785 NM_198904), α2, β3, γ2S, α3, α4, δ and α5 including introduced Kozac sequences just before the start codons were subcloned into mammalian expression vectors containing Geneticin, Hygromycin B, and Zeocin resistance, respectively. A HEK-293 cell line stably expressing the three GABAA-receptor subunits was produced by transfection of the subunits, one at a time. The transfection was followed by selection with the appropriate antibiotics, cell separation with the use of subunit specific antibodies and production of single cell colonies. Produced cell lines were analysed with immunocytochemistry for the three GABAA-receptor subunits, followed by selection of a suitable cell line showing, for the GABAA-receptor normal and good reactivity in a patch-clamp analysis (see below) towards GABA and the GAMS THDOC.
(§3) Cell culture: HEK-293 cells, permanently transfected with human α1-β2-γ2L, α2-β3-γ2S, α3-β3-γ2L, α4-β3-δ and α5-β3-γ2L GABAA-receptor subtypes, were seeded at a density of 3×10^4/25 cm^2 in cell binding culture flask. The transfected cells were used for patch-clamp experiments 3 days after seeding. When using the cells for patch-clamp experiments the cells were washed twice with oxygen-bubbled EC-solution (see below). About 5 mL EC was then added and the cells were kept in the incubator for about 15 minutes. After 15 minutes the cells came loose from the bottom of the flask and were separated by carefully sucking couple of times with a Pasteur pipette.
(§4) Dynaflow™ system: Dynaflow™ system with resolve chips was used for all patch-clamp experiments. The resolve chips is made of non-sticky materials. The channel width is 150 μm and the height 50 μm. The well volume is 280 μL. Run time at the flow rate of 26 μL/min is […]. The pump settings were as follow: Omnifix 2 ml syringe with inner diameter of 9.65 mm was used. The syringe pump flow rate of chip was 26 μL/min.
(§5) Steroids and GABA: GABA was dissolved in EC-solution by ultrasound for about 40 minutes to the concentration of 10 mM in room temperature. All steroids were dissolved to the concentration of 6 mM in dimethyl sulfoxide (DMSO). The DMSO concentration was 0.1% in all end-solutions, including the wash solution (EC) and the solution with GABA alone. End-solutions are the solutions added into the wells of the chip.
(§6) Electrophysiology: Patch electrodes were pulled from 1.5 mm O.D., 0.86 mm I.D. borosilicate capillary glass without filament. […] The intracellular solution (IC) comprised of (in mM): 140 Cs-gluconate, 3.0 NaCl, 1.2 MgCl2, 1.0 EGTA, 10 HEPES. pH was adjusted to 7.2 with CsOH. The extracellular (EC) solution used during recordings contained (in mM): 137 NaCl, 5.0 KCl, 1.0 CaCl2), 1.2 MgCl2, 10 HEPES, 10 glucose. pH was adjusted with NaOH to 7.4. After compensating for the liquid junction potential, a steady holding potential of −17 mV was used in all experiments. In physiological conditions the HEK-293 has a resting potential at −40 mV and a low concentration of chloride ions inside the cell. By using the holding potential of-17 mV and the intracellular solution with low chloride ion concentration the chloride ions flux into the cell when the receptors are activated. All experiments were performed at room temperature (21 to 23° C.). The following standard protocol was used for all experiments.
(§7) GABA applications: By using the Dynaflow equipment it is possible to study transfected HEK-293 during almost physiological conditions.

[2] = target: T2, human α4-β3-δ GABAA-receptor subtype (Homo sapiens, UniProt P28472+P48169); assay: Patch clamp (Dynaflow) GABA-mediated current response, HEK-293 cells, α4β3δ; assay type: cell-based; conditions: 1 μM steroid
T2 construct: expressed in transfected cells
T2 sequence (P48169 36-554): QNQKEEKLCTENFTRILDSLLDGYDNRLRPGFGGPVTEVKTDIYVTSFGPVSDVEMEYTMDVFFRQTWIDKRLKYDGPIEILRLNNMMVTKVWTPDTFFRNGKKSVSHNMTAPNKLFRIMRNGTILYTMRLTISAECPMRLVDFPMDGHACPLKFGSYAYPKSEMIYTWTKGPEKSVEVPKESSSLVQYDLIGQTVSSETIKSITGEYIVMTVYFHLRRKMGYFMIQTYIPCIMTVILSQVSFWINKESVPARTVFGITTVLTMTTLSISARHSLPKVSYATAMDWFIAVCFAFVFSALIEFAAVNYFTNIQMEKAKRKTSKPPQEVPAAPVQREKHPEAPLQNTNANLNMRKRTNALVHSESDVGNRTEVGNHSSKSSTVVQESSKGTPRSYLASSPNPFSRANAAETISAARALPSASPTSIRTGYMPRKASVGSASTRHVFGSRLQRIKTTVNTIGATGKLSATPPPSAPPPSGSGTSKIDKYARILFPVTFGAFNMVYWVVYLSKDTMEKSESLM
T2 sequence (P28472 26-473): as the sequence (P28472 26-473) above
T2 sequence (O14764 25-452 partner): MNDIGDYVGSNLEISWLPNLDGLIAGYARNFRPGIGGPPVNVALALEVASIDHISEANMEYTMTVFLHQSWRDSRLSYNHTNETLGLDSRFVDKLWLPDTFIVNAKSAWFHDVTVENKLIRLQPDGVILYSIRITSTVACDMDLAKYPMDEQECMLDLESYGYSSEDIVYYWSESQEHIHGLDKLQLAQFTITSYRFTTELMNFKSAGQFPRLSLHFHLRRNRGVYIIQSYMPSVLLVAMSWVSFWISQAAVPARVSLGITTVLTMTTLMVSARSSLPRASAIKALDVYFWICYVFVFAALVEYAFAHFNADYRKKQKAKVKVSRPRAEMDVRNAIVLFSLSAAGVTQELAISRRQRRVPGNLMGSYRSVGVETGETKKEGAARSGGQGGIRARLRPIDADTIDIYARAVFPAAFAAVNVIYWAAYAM
Excerpt: as §1, §2, §3, §4
as §5, with “chip. […]” for “chip.”

[3] = target: T3, human α1-β2-γ2L GABAA-receptor subtype (Homo sapiens, UniProt P14867+P47870); assay: Patch clamp (Dynaflow) GABA-mediated current response, HEK-293 cells, α1β2γ2L; assay type: cell-based; conditions: 1 μM steroid, α1β2γ2L; for effect on GABA response: mean ± SEM, + enhancement, − reduction
T3 construct: expressed in transfected cells
T3 sequence (P14867 28-456): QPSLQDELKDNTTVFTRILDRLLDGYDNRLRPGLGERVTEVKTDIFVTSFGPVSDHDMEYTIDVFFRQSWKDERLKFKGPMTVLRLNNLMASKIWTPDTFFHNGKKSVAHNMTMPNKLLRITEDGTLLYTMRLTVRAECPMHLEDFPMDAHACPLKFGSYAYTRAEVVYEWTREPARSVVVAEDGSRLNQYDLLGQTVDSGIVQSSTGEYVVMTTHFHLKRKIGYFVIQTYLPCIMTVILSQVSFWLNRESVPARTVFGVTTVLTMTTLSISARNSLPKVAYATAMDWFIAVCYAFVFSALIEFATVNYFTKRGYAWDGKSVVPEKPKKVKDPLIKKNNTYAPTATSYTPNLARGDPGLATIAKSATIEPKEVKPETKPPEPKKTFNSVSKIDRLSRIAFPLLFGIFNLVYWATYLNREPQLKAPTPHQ
T3 sequence (P47870 26-474 isoform P47870-1 limits assumed): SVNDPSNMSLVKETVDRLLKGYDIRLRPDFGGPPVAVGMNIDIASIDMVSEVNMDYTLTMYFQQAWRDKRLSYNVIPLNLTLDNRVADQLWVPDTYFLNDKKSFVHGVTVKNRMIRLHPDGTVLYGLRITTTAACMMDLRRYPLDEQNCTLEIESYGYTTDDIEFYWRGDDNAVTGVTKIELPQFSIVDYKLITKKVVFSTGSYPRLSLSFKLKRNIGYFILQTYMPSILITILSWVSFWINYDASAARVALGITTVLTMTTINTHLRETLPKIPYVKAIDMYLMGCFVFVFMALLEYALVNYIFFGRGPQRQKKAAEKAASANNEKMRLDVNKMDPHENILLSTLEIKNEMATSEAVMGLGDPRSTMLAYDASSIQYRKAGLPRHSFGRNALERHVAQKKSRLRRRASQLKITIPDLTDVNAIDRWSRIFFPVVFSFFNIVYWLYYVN
T3 sequence (P18507 40-475 partner): as the sequence (P18507 40-475 partner) above
Excerpt: as §1, §2, §3, §4, §5
as §6, with “By using the holding potential of-17 mV and the intracellular solution with low chloride ion concentration the chloride ions flux into the cell when the receptors are activated. All experiments were performed at room temperature (21 to 23° C.). The following standard protocol was used for all experiments.” left out

[4] = target: T4, human α5-β3-γ2L GABAA-receptor subtype (Homo sapiens, UniProt P28472+P31644); assay: Patch clamp (Dynaflow) GABA-mediated current response, HEK-293 cells, α5β3γ2L; assay type: cell-based; conditions: 1 μM steroid
T4 construct: expressed in transfected cells
T4 sequence (P31644 32-462): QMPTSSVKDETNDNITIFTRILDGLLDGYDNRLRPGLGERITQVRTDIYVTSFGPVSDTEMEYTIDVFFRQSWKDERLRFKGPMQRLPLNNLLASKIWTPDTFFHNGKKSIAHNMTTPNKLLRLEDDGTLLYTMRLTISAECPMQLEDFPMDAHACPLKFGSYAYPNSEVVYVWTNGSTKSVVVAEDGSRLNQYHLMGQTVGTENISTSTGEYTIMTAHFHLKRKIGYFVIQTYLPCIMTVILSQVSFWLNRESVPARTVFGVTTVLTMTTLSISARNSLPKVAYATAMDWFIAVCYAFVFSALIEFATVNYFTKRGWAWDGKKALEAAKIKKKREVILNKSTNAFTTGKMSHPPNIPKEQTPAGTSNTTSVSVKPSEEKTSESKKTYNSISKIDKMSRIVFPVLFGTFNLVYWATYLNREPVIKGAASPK
T4 sequence (P28472 26-473): as the sequence (P28472 26-473) above
T4 sequence (P18507 40-475 partner): as the sequence (P18507 40-475 partner) above
Excerpt: as §1, §2, §3, §4
as §5, with “chip. […]” for “chip.”

[5] = target: T5, human α3-β3-γ2L GABAA-receptor subtype (Homo sapiens, UniProt P28472+P34903); assay: Patch clamp (Dynaflow) GABA-mediated current response, HEK-293 cells, α3β3γ2L; assay type: cell-based; conditions: for effect on GABA (in words) / effect on GABA response: 1 μM steroid; for activation of the receptor in the absence of GABA / Imax on 100 μM GABA mediated current response: 0.01-10 μM steroid; for activation of the receptor in the absence of GABA: no GABA, data not shown; for Imax on 100 μM GABA mediated current response: from best fit curve
T5 construct: expressed in transfected cells
T5 sequence (P34903 29-492): as the sequence (P34903 29-492) above
T5 sequence (P28472 26-473): as the sequence (P28472 26-473) above
T5 sequence (P18507 40-475 partner): as the sequence (P18507 40-475 partner) above
Excerpt: as §1, §2, §3, §4, §5, §6, §7

[6] = target: T6, human α2-β3-γ2S GABAA-receptor subtype (Homo sapiens, UniProt P28472+P47869); assay: Patch clamp (Dynaflow) GABA-mediated current response, HEK-293 cells, α2β3γ2S; assay type: cell-based; conditions: 1 μM steroid
T6 construct: expressed in transfected cells
T6 sequence (P47869 29-451): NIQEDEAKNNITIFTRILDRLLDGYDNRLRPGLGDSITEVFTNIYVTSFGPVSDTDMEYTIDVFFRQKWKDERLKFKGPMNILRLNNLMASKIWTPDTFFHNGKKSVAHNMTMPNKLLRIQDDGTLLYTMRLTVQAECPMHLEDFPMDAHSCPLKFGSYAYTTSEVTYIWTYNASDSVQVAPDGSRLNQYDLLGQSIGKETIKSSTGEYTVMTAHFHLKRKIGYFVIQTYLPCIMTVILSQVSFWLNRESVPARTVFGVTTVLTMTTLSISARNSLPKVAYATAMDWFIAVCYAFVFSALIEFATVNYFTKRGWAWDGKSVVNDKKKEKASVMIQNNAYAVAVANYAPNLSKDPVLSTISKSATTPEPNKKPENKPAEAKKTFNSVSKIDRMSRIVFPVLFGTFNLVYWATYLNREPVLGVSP
T6 sequence (P28472 26-473): as the sequence (P28472 26-473) above
T6 sequence (P18507 40-467 isoform P18507-1 partner limits assumed): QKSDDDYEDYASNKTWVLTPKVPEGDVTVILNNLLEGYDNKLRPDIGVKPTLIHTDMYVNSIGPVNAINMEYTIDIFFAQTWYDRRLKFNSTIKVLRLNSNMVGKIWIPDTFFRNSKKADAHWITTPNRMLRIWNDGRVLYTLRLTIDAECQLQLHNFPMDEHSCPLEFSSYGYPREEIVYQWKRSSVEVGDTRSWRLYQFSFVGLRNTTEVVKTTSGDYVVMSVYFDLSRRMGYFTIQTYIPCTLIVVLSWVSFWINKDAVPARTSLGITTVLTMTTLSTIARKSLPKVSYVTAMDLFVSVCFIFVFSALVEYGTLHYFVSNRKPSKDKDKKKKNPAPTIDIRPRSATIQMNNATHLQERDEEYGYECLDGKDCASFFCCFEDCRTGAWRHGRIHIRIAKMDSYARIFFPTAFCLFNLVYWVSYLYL
Excerpt: as §1, §2, §3, §4
as §5, with “chip. […]” for “chip.”

SMILES: CC[C@]1(O)CC[C@@]2(C)[C@@H](CC[C@@H]3[C@@H]2CC[C@]2(C)C(=O)CC[C@@H]32)C1 [3α-ethyl-3β-hydroxy-5α-androstan-17-one]
- effect on the GABAA-receptors alone without GABA present (GABAA-receptors): no effect
- reduction of THDOC-enhanced GABA effect, Mean ± SEM % ([1]; steroid conc. 0.03 μM): −4.4 ± 8.5%
- reduction of THDOC-enhanced GABA effect, Mean ± SEM % ([1]; steroid conc. 0.1 μM): −35 ± 8.8%
- reduction of THDOC-enhanced GABA effect, Mean ± SEM % ([1]; steroid conc. 0.3 μM): −72 ± 8.3%
- reduction of THDOC-enhanced GABA effect, Mean ± SEM % ([1]; steroid conc. 1 μM): −120 ± 5.6%
- reduction of THDOC-enhanced GABA effect, Mean ± SEM % ([1]; steroid conc. 3 μM): −202 ± 13%
- concentration at which antagonistic effect on THDOC enhancement of GABA is seen ([1]; α3β3γ2L): ≥ 0.1 µM
- effect on GABA (in words) [2]: significant antagonistic effect
- effect on GABA response [2]: −12 ± 2.3%
- effect on GABA (in words) [3]: significant antagonistic effect
- effect on GABA response [3]: −9.3 ± 1.3%
- effect on GABA (in words) [4]: significant antagonistic effect
- effect on GABA response [4]: −38 ± 2.0%
- IC50 [5]: 900 nM
- effect on GABA (in words) ([5]; α3β3γ2L): significant antagonistic effect
- effect on GABA response ([5]; α3β3γ2L): −38 ± 2.4%
- activation of the receptor in the absence of GABA [5]: did activate the receptor in the absence of GABA
- significant reducing effect on 100 μM GABA response ([5]; at 0.3 μM, α3β3γ2L): more than 10%
- Imax on 100 μM GABA mediated current response ([5]; α3β3γ2L): −77%
- effect on 100 μM GABA response, Mean ± SEM % ([5]; steroid conc. 0.01 μM, α3β3γ2L): +6.6 ± 2.2%
- effect on 100 μM GABA response, Mean ± SEM % ([5]; steroid conc. 0.03 μM, α3β3γ2L): −1.6 ± 0.7%
- effect on 100 μM GABA response, Mean ± SEM % ([5]; steroid conc. 0.1 μM, α3β3γ2L): +4.4 ± 3.0%
- effect on 100 μM GABA response, Mean ± SEM % ([5]; steroid conc. 0.3 μM, α3β3γ2L): −11 ± 0.7%
- effect on 100 μM GABA response, Mean ± SEM % ([5]; steroid conc. 1 μM, α3β3γ2L): −39 ± 3.1%
- effect on 100 μM GABA response, Mean ± SEM % ([5]; steroid conc. 3 μM, α3β3γ2L): −67 ± 3.0%
- effect on 100 μM GABA response, Mean ± SEM % ([5]; steroid conc. 10 μM, α3β3γ2L): −75 ± 3.0%
- concentration at which antagonistic effect against GABAs effect is seen ([5]; α3β3γ2L): ≥ 0.3 µM
- effect on GABA (in words) [6]: significant antagonistic effect
- effect on GABA response [6]: −29 ± 1.3%

SMILES: CC[C@]1(O)CC[C@@]2(C)[C@@H](CC[C@@H]3[C@@H]2CC[C@]2(C)[C@@H](C(C)=O)CC[C@@H]32)C1 [3α-ethyl-3β-hydroxy-5α-pregnan-20-one]
- effect on the GABAA-receptors alone without GABA present (GABAA-receptors): no effect
- IC50 [1]: 400 nM
- block of the THDOC enhancement ([1]; 3 μM steroid): completely block the THDOC enhancement
- effect on THDOC's autonomic opening of the α3β3γ2L GABAA-receptor ([1]; in the range of the vehicle): slight agonistic effect
- reduction of THDOC-enhanced GABA effect, Mean ± SEM % ([1]; steroid conc. 0.03 μM): +19 ± 7.4%
- reduction of THDOC-enhanced GABA effect, Mean ± SEM % ([1]; steroid conc. 0.1 μM): −7.7 ± 12%
- reduction of THDOC-enhanced GABA effect, Mean ± SEM % ([1]; steroid conc. 0.3 μM): −34 ± 6.7%
- reduction of THDOC-enhanced GABA effect, Mean ± SEM % ([1]; steroid conc. 1 μM): −78 ± 8.8%
- reduction of THDOC-enhanced GABA effect, Mean ± SEM % ([1]; steroid conc. 3 μM): −141 ± 15%
- concentrations at which antagonist against THDOC enhancement of GABA ([1]; α3β3γ2L): above 300 nM
- effect on GABA (in words) [2]: no significant antagonistic or agonistic effect
- effect on GABA response [2]: +6.5 ± 2.5%
- effect on GABA (in words) [3]: agonistic enhancing effect
- effect on GABA response [3]: +6.0 ± 2.0%
- effect on GABA (in words) [4]: no significant antagonistic or agonistic effect
- effect on GABA response [4]: +3.2 ± 2.6%
- IC50 [5]: 1700 nM
- effect on GABA (in words) ([5]; α3β3γ2L): antagonizing effect
- effect on GABA response ([5]; α3β3γ2L): −8.5 ± 1.9%
- activation of the receptor in the absence of GABA [5]: did activate the receptor in the absence of GABA
- significant reducing effect on 100 μM GABA response ([5]; at 3 μM, α3β3γ2L): more than 30%
- Imax on 100 μM GABA mediated current response ([5]; α3β3γ2L): −47%
- effect on 100 μM GABA response, Mean ± SEM % ([5]; steroid conc. 0.01 μM, α3β3γ2L): +3.7 ± 2.4%
- effect on 100 μM GABA response, Mean ± SEM % ([5]; steroid conc. 0.03 μM, α3β3γ2L): +9.1 ± 4.4%
- effect on 100 μM GABA response, Mean ± SEM % ([5]; steroid conc. 0.1 μM, α3β3γ2L): +1.2 ± 4.2%
- effect on 100 μM GABA response, Mean ± SEM % ([5]; steroid conc. 0.3 μM, α3β3γ2L): +15 ± 4.7%
- effect on 100 μM GABA response, Mean ± SEM % ([5]; steroid conc. 1 μM, α3β3γ2L): −8.1 ± 2.7%
- effect on 100 μM GABA response, Mean ± SEM % ([5]; steroid conc. 3 μM, α3β3γ2L): −32 ± 4.0%
- effect on 100 μM GABA response, Mean ± SEM % ([5]; steroid conc. 10 μM, α3β3γ2L): −46 ± 6.8%
- effect on GABA (in words) [6]: no significant antagonistic or agonistic effect
- effect on GABA response [6]: +0.6 ± 2.3%
